Measured values reported in PubChem BioAssay (NCI).
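All cell lines were grown in 96-well plates and treated with compound for 48 hours. Abbreviation: GI50, concentration required for 50% inhibition of growth. TGI is the concentration that stops growth completely.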

How the values were obtained:
Test in all cases: NCI anticancer screen, dose series, 48 h
UACC-257 melanoma = tested on: UACC-257 melanoma
U251 CNS = tested on: U251 CNS
A549 NSCLC = tested on: A549 NSCLC
TK-10 renal = tested on: TK-10 renal
SNB-19 CNS = tested on: SNB-19 CNS
SK-MEL-5 melanoma = tested on: SK-MEL-5 melanoma
SR leukemia = tested on: SR leukemia
SK-MEL-2 melanoma = tested on: SK-MEL-2 melanoma
SF-268 CNS = tested on: SF-268 CNS
NCI-H226 lung = tested on: NCI-H226 lung
CAKI-1 renal = tested on: CAKI-1 renal
HL-60(TB) leukemia = tested on: HL-60(TB) leukemia
ACHN renal = tested on: ACHN renal
PC-3 prostate = tested on: PC-3 prostate
MOLT-4 leukemia = tested on: MOLT-4 leukemia
786-0 renal = tested on: 786-0 renal
T-47D breast = tested on: T-47D breast
NCI-H522 lung = tested on: NCI-H522 lung
HT29 colon = tested on: HT29 colon
NCI-H460 lung = tested on: NCI-H460 lung
K-562 leukemia = tested on: K-562 leukemia
SK-OV-3 ovarian = tested on: SK-OV-3 ovarian
OVCAR-8 ovarian = tested on: OVCAR-8 ovarian
HOP-92 NSCLC = tested on: HOP-92 NSCLC
UACC-62 melanoma = tested on: UACC-62 melanoma
MDA-MB-435 = tested on: MDA-MB-435
SN12C renal = tested on: SN12C renal
HCT-15 colon = tested on: HCT-15 colon
DU-145 prostate = tested on: DU-145 prostate
RPMI-8226 leukemia = tested on: RPMI-8226 leukemia
EKVX NSCLC = tested on: EKVX NSCLC
SF-539 CNS = tested on: SF-539 CNS
SNB-75 CNS = tested on: SNB-75 CNS
OVCAR-4 ovarian = tested on: OVCAR-4 ovarian
IGROV1 ovarian = tested on: IGROV1 ovarian
CCRF-CEM leukemia = tested on: CCRF-CEM leukemia
A498 renal = tested on: A498 renal
HCT-116 colon = tested on: HCT-116 colon
MALME-3M melanoma = tested on: MALME-3M melanoma
BT-549 breast = tested on: BT-549 breast
HCC-2998 colon = tested on: HCC-2998 colon
HOP-62 NSCLC = tested on: HOP-62 NSCLC
MDA-MB-231 breast = tested on: MDA-MB-231 breast
KM12 colon = tested on: KM12 colon
M14 melanoma = tested on: M14 melanoma
SK-MEL-28 melanoma = tested on: SK-MEL-28 melanoma
RXF 393 renal = tested on: RXF 393 renal
UO-31 renal = tested on: UO-31 renal
SW-620 colon = tested on: SW-620 colon
LOX IMVI melanoma = tested on: LOX IMVI melanoma
OVCAR-5 ovarian = tested on: OVCAR-5 ovarian
COLO 205 colon = tested on: COLO 205 colon
NCI/ADR-RES ovarian = tested on: NCI/ADR-RES ovarian
HS 578T breast = tested on: HS 578T breast
SF-295 CNS = tested on: SF-295 CNS
MCF7 breast = tested on: MCF7 breast
OVCAR-3 ovarian = tested on: OVCAR-3 ovarian

## COc1cc(/C=C/C(=O)c2c(C)n([O-])c3ccccc3[n+]2=O)cc(OC)c1OC
UACC-257 melanoma
  GI50: 6.48 µM
  TGI: 20.5 µM
U251 CNS
  GI50: 5.14 µM
  TGI: 17.2 µM
A549 NSCLC
  GI50: 8.69 µM
  TGI: 21.6 µM
TK-10 renal
  GI50: 11.3 µM
  TGI: 24 µM
SNB-19 CNS
  GI50: 10.5 µM
  TGI: 23.3 µM
SK-MEL-5 melanoma
  GI50: 3.62 µM
  TGI: 13.4 µM
SR leukemia
  GI50: 2.75 µM
  TGI: 14.9 µM
SK-MEL-2 melanoma
  GI50: 4.63 µM
  TGI: 17.2 µM
SF-268 CNS
  GI50: 5.65 µM
  TGI: 25.7 µM
NCI-H226 lung
  GI50: 15.2 µM
  TGI: 34 µM
CAKI-1 renal
  GI50: 7.61 µM
  TGI: 20.7 µM
HL-60(TB) leukemia
  GI50: 5.24 µM
  TGI: > 100 µM
ACHN renal
  GI50: 10.8 µM
  TGI: 22.7 µM
PC-3 prostate
  GI50: 4.45 µM
  TGI: 19.3 µM
MOLT-4 leukemia
  GI50: 3.38 µM
  TGI: 40.7 µM
786-0 renal
  GI50: 6.94 µM
  TGI: 20.1 µM
T-47D breast
  GI50: 8.71 µM
  TGI: 28.7 µM
NCI-H522 lung
  GI50: 8.73 µM
  TGI: 24 µM
HT29 colon
  GI50: 10.7 µM
  TGI: 22.9 µM
NCI-H460 lung
  GI50: 3.63 µM
  TGI: 13.1 µM
K-562 leukemia
  GI50: 5.88 µM
  TGI: > 100 µM
SK-OV-3 ovarian
  GI50: 11 µM
  TGI: 25.5 µM
OVCAR-8 ovarian
  GI50: 4.43 µM
  TGI: 17.7 µM
HOP-92 NSCLC
  GI50: 3.47 µM
  TGI: 15.7 µM
UACC-62 melanoma
  GI50: 11.3 µM
  TGI: 23.3 µM
MDA-MB-435
  GI50: 5.4 µM
  TGI: 22.5 µM
SN12C renal
  GI50: 5.82 µM
  TGI: 20.3 µM
HCT-15 colon
  GI50: 4 µM
  TGI: 15.6 µM
DU-145 prostate
  GI50: 2.17 µM
  TGI: 13.5 µM
RPMI-8226 leukemia
  GI50: 3.58 µM
  TGI: 22.8 µM
EKVX NSCLC
  GI50: 2.43 µM
  TGI: 6.86 µM
SF-539 CNS
  GI50: 11.5 µM
  TGI: 23.7 µM
SNB-75 CNS
  GI50: 12.5 µM
  TGI: 30.8 µM
OVCAR-4 ovarian
  GI50: 10.8 µM
  TGI: > 100 µM
IGROV1 ovarian
  GI50: 3.99 µM
  TGI: 15.6 µM
CCRF-CEM leukemia
  GI50: 3.66 µM
  TGI: 23.3 µM
A498 renal
  GI50: 3.97 µM
  TGI: 17.8 µM
HCT-116 colon
  GI50: 2.56 µM
  TGI: 13.8 µM
MALME-3M melanoma
  GI50: 11.4 µM
  TGI: 26.7 µM
BT-549 breast
  GI50: 3.18 µM
  TGI: 13.5 µM
HCC-2998 colon
  GI50: 8.77 µM
  TGI: 22.3 µM
HOP-62 NSCLC
  GI50: 12.4 µM
  TGI: 24.9 µM
MDA-MB-231 breast
  GI50: 9.57 µM
  TGI: 22.4 µM
KM12 colon
  GI50: 10.7 µM
  TGI: 24.7 µM
M14 melanoma
  GI50: 5.28 µM
  TGI: 18.8 µM
SK-MEL-28 melanoma
  GI50: 11.2 µM
  TGI: 28.9 µM
RXF 393 renal
  GI50: 5.85 µM
  TGI: 20.4 µM
UO-31 renal
  GI50: 4.5 µM
  TGI: 17.5 µM
SW-620 colon
  GI50: 4.99 µM
  TGI: 17.1 µM
LOX IMVI melanoma
  GI50: 5.25 µM
  TGI: 17.4 µM
OVCAR-5 ovarian
  GI50: 11.6 µM
  TGI: 24.6 µM
COLO 205 colon
  GI50: 9.08 µM
  TGI: 24.9 µM
NCI/ADR-RES ovarian
  GI50: 4.02 µM
  TGI: 20 µM
HS 578T breast
  GI50: 3.51 µM
  TGI: 21 µM
SF-295 CNS
  GI50: 4.34 µM
  TGI: 14.8 µM
MCF7 breast
  GI50: 3.18 µM
  TGI: 13.4 µM
OVCAR-3 ovarian
  GI50: 5.17 µM
  TGI: 18.6 µM
